Activity calls are given as the source filed them. The rule behind the calls is not given here.
Tested on: CCRIS mutagenicity, Ames/micronucleus/aberration tests
Assay: CCRIS mutagenicity studies
[1] = Test System: AMES SALMONELLA TYPHIMURIUM, Strain/Indicator: TA1535, Metabolic Activation: NONE, Method: PREINCUBATION
[2] = Test System: AMES SALMONELLA TYPHIMURIUM, Strain/Indicator: TA1537, Metabolic Activation: NONE, Method: PREINCUBATION
[3] = Test System: AMES SALMONELLA TYPHIMURIUM, Strain/Indicator: TA98, Metabolic Activation: NONE, Method: PREINCUBATION
[4] = Test System: AMES SALMONELLA TYPHIMURIUM, Strain/Indicator: TA100, Metabolic Activation: NONE, Method: PREINCUBATION

SMILES: Nc1cccc2nc3ccccc3c(N)c12
- mutagenic call [1]: inactive; negative
- mutagenic call (Test System: AMES SALMONELLA TYPHIMURIUM, Strain/Indicator: TA1535, Metabolic Activation: RAT, LIVER, S-9, TETRACHLOROBIPHENYL, Method: PREINCUBATION): active; positive
- mutagenic call [2]: active; positive
- mutagenic call (Test System: AMES SALMONELLA TYPHIMURIUM, Strain/Indicator: TA1537, Metabolic Activation: RAT, LIVER, S-9, TETRACHLOROBIPHENYL, Method: PREINCUBATION): active; positive
- mutagenic call (Test System: AMES SALMONELLA TYPHIMURIUM, Strain/Indicator: TA1538, Metabolic Activation: NONE, Method: PREINCUBATION): inactive; negative
- mutagenic call (Test System: AMES SALMONELLA TYPHIMURIUM, Strain/Indicator: TA1538, Metabolic Activation: RAT, LIVER, S-9, TETRACHLOROBIPHENYL, Method: PREINCUBATION): active; positive
- mutagenic call (Test System: AMES SALMONELLA TYPHIMURIUM, Strain/Indicator: TA1975, Metabolic Activation: RAT, LIVER, S-9, TETRACHLOROBIPHENYL, Method: PREINCUBATION): active; positive
- mutagenic call (Test System: AMES SALMONELLA TYPHIMURIUM, Strain/Indicator: TA1977, Metabolic Activation: NONE, Method: PREINCUBATION): active; positive
- mutagenic call (Test System: AMES SALMONELLA TYPHIMURIUM, Strain/Indicator: TA1977, Metabolic Activation: RAT, LIVER, S-9, TETRACHLOROBIPHENYL, Method: PREINCUBATION): active; positive
- mutagenic call (Test System: AMES SALMONELLA TYPHIMURIUM, Strain/Indicator: TA1978, Metabolic Activation: RAT, LIVER, S-9, TETRACHLOROBIPHENYL, Method: PREINCUBATION): active; positive

SMILES: N#CCCC(=O)/C=C/c1ccc(C(=O)O)cc1
- mutagenic call [3]: inactive; negative
- mutagenic call (Test System: AMES SALMONELLA TYPHIMURIUM, Strain/Indicator: TA98, Metabolic Activation: RAT, LIVER, S-9, PCB, Method: PREINCUBATION): inactive; negative
- mutagenic call [4]: inactive; negative
- mutagenic call (Test System: AMES SALMONELLA TYPHIMURIUM, Strain/Indicator: TA100, Metabolic Activation: RAT, LIVER, S-9, PCB, Method: PREINCUBATION): inactive; negative

SMILES: CC(=O)c1cc(NC(N)=O)ccc1OCC(O)CNC(C)(C)C (centres undefined)
- mutagenic call [3]: inactive; negative
- mutagenic call (Test System: AMES SALMONELLA TYPHIMURIUM, Strain/Indicator: TA98, Metabolic Activation: RAT, LIVER, S-9, AROCLOR 1254 (10 OR 50 µL/PLATE), Method: PREINCUBATION): inactive; negative
- mutagenic call [4]: inactive; negative
- mutagenic call (Test System: AMES SALMONELLA TYPHIMURIUM, Strain/Indicator: TA100, Metabolic Activation: RAT, LIVER, S-9, AROCLOR 1254 (10 OR 50 µL/PLATE ), Method: PREINCUBATION): active; positive
- mutagenic call [1]: inactive; negative
- mutagenic call (Test System: AMES SALMONELLA TYPHIMURIUM, Strain/Indicator: TA1535, Metabolic Activation: RAT, LIVER, S-9, AROCLOR 1254 (10 OR 50 µL/PLATE), Method: PREINCUBATION): active; positive
- mutagenic call [2]: inactive; negative
- mutagenic call (Test System: AMES SALMONELLA TYPHIMURIUM, Strain/Indicator: TA1537, Metabolic Activation: RAT, LIVER, S-9, AROCLOR 1254 (10 OR 50 µL/PLATE), Method: PREINCUBATION): inactive; negative
- mutagenic call (Test System: E. COLI, Strain/Indicator: WP2 UVRA, Metabolic Activation: NONE, Method: PREINCUBATION): inactive; negative
- mutagenic call (Test System: E. COLI, Strain/Indicator: WP2 UVRA, Metabolic Activation: RAT, LIVER, S-9, AROCLOR 1254 (10 OR 50 µL/PLATE), Method: PREINCUBATION): inactive; negative

SMILES: Oc1ccc(Cc2ccc(O)cc2)cc1
- mutagenic call (End Point: In vitro micronucleus, Test System: HepG2 cells, Metabolic Activation: None): inactive; negative
- mutagenic call (Test System: Ames Salmonella typhimurium, Strain/Indicator: TA98, Metabolic Activation: None, Method: Preincubation): inactive; negative
- mutagenic call (Test System: Ames Salmonella typhimurium, Strain/Indicator: TA98, Metabolic Activation: Rat, Liver, S-9, Aroclor 1254, Method: Preincubation): inactive; negative
- mutagenic call (Test System: Ames Salmonella typhimurium, Strain/Indicator: TA100, Metabolic Activation: None, Method: Preincubation): inactive; negative
- mutagenic call (Test System: Ames Salmonella typhimurium, Strain/Indicator: TA100, Metabolic Activation: Rat, Liver, S-9, Aroclor 1254, Method: Preincubation): inactive; negative
- mutagenic call (Test System: Ames Salmonella typhimurium, Strain/Indicator: TA1535, Metabolic Activation: None, Method: Preincubation): inactive; negative
- mutagenic call (Test System: Ames Salmonella typhimurium, Strain/Indicator: TA1535, Metabolic Activation: Rat, Liver, S-9, Aroclor 1254, Method: Preincubation): inactive; negative
- mutagenic call (Test System: Ames Salmonella typhimurium, Strain/Indicator: TA1537, Metabolic Activation: None, Method: Preincubation): inactive; negative
- mutagenic call (Test System: Ames Salmonella typhimurium, Strain/Indicator: TA1537, Metabolic Activation: Rat, Liver, S-9, Aroclor 1254, Method: Preincubation): inactive; negative
- mutagenic call (Test System: E. coli, Strain/Indicator: W2 uvrA pKM101, Metabolic Activation: None, Method: Preincubation): inactive; negative
- mutagenic call (Test System: E. coli, Strain/Indicator: W2 uvrA pKM101, Metabolic Activation: Rat, Liver, S-9, Aroclor 1254, Method: Preincubation): inactive; negative

SMILES: BrC(Br)C(Br)Br
- mutagenic call (Test System: AMES SALMONELLA TYPHIMURIUM, Strain/Indicator: TA97, Metabolic Activation: NONE, Method: STANDARD PLATE): active; positive
- mutagenic call (Test System: AMES SALMONELLA TYPHIMURIUM, Strain/Indicator: TA97, Metabolic Activation: RAT, LIVER, S-9, AROCLOR 1254, Method: STANDARD PLATE): active; positive
- mutagenic call (Test System: AMES SALMONELLA TYPHIMURIUM, Strain/Indicator: TA98, Metabolic Activation: NONE, Method: STANDARD PLATE): inactive; negative
- mutagenic call (Test System: AMES SALMONELLA TYPHIMURIUM, Strain/Indicator: TA98, Metabolic Activation: RAT, LIVER, S-9, AROCLOR 1254, Method: STANDARD PLATE): active; positive
- mutagenic call (Test System: AMES SALMONELLA TYPHIMURIUM, Strain/Indicator: TA100, Metabolic Activation: NONE, Method: STANDARD PLATE): inactive; negative
- mutagenic call (Test System: AMES SALMONELLA TYPHIMURIUM, Strain/Indicator: TA100, Metabolic Activation: RAT, LIVER, S-9, AROCLOR 1254, Method: STANDARD PLATE): active; positive
- mutagenic call (Test System: AMES SALMONELLA TYPHIMURIUM, Strain/Indicator: TA104, Metabolic Activation: NONE, Method: STANDARD PLATE): inactive; negative
- mutagenic call (Test System: AMES SALMONELLA TYPHIMURIUM, Strain/Indicator: TA104, Metabolic Activation: RAT, LIVER, S-9, AROCLOR 1254, Method: STANDARD PLATE): active; positive
- mutagenic call (Test System: AMES SALMONELLA TYPHIMURIUM, Strain/Indicator: TA1530, Metabolic Activation: NONE, Method: PREINCUBATION): active; positive

From PubChem BioAssay AID1259407 (Chemical Carcinogenesis Research Information System (CCRIS), 2018)
